{"source": "patent US20260109707A1", "about": "“HETEROBIFUNCTIONAL COMPOUNDS AND METHODS OF TREATING DISEASE” (Halda Therapeutics OpCo. Inc., priority 2022, published 2026)", "key": {"[1]": {"test_system": "T-Rex 293 cell line SC cells lacking increased expression of progesterone receptor isoform B protein", "assay": "Cellular growth inhibition assay, T-Rex 293 SC cells without doxycycline (CellTiter-Glo, 72 hours)", "type": "cell-based", "conditions": "T-Rex 293 SC cells not exposed to doxycycline", "description": "(§1) The following types of cells were prepared for this experiment: (i) a T-Rex 293 cell line having increased expression of progesterone receptor isoform B protein due to exposure to doxycycline and (ii) a T-Rex 293 cell line lacking increased expression of progesterone receptor isoform B protein. Ability of the test compounds to inhibit proliferation of the foregoing cell types was evaluated according to the procedures set forth below.\n(§2) The doxycycline-inducible progesterone receptor isoform B protein expressing cell line was established using the following protocol: T-Rex 293 cells were purchased from Invitrogen (Cat #R71007) and transfected using Lipofectamine 2000 with the wild-type progesterone receptor B protein sequence cloned into the pcDNA4/TO vector. Transfected cells were selected using 400 μg/mL Zeocin (Invitrogen Cat #R25001). Following selection, single clones were raised and maintained in Dulbecco's Modified Eagle Medium (DMEM) supplemented with 10% w/w Tetracycline-free fetal bovine serum (FBS) and 250 μg/mL Zeocin. Clones were analyzed for expression of progesterone receptor isoform B protein in the presence and absence of 10 ng/mL doxycycline (Sigma Cat #D9891), and a single doxycycline-inducible clone (hereinafter “SC”) was selected for use in downstream assays.\n(§3) The SC cells were seeded on poly-D-lysine coated, black clear-bottom 384-well plates at 2500/well, in 25 μL Phenol Red Free Dulbecco's Modified Eagle Medium (DMEM) supplemented with 10% w/w charcoal-dextran treated fetal bovine serum (FBS) and 1% w/w pen-strep, with or without 10 ng/mL doxycycline. Pen-Strep is a commercially available mixture of penicillin G and streptomycin, which is used in mammalian cell culture media to prevent bacterial contamination. Phenol Red Free Dulbecco's Modified Eagle Medium (DMEM) supplemented with 10% w/w charcoal-dextran treated fetal bovine serum (FBS) and 1% w/w pen-strep, with or without 10 ng/mL doxycycline is herein referred to as Treatment Medium. Following seeding of cells in the plates, the plates were spun at 300×g for 30 seconds, then equilibrated to room temperature for 30 minutes, and then deposited in a humidified tissue culture incubator maintained at 37° C. with 5% CO2.\n(§4) At 24 hours after seeding of the cells, dilutions of test compound were prepared in DMSO and dissolved in Treatment Medium, to achieve a final DMSO concentration of 0.5% w/w, thereby providing the Test Compound Solution. A 25 μL aliquot of the Test Compound Solution was added to cells in the well plates. An equal volume of a solution containing DMSO and Treatment Medium was used as a negative control. Following treatment of cells with Test Compound Solution or said equal volume of a solution containing DMSO and Treatment Medium, the plates were spun at 300×g for 30 seconds, and then left in an incubator for 72 hours.\n(§5) At the end of the treatment duration, cell viability was quantified with CellTiter-Glo 2.0 reagent (Promega Cat #G9243). For this purpose, plates were equilibrated to room temperature for 30 minutes, and then 25 μL of CellTiter-Glo 2.0 reagent was added to cells in the plate wells. Plates were then agitated on a shaker for two minutes at 500 rpm and subsequently incubated at room temperature for 10 minutes. Following incubation, the plates were spun at 3000×g for 30 seconds, then sealed with an optical adhesive cover, and luminescence readings were measured with an EnVision Plate Reader (Perkin Elmer).\n(§6) Data was normalized using zero luminescence for baseline. A four-parameter non-linear regression curve fit was applied to dose-response data in GraphPad Prism data analysis software to determine the half-maximal growth inhibitory concentration (GI50) for each test compound."}, "BRD4-BD2": {"target": "T1, BRD4-BD2 (Homo sapiens, UniProt O60885)", "T1 construct": "made in house; host or cells: T7 phage grown in an E. coli host derived from the BL21 strain", "assay": "bromoKdELECT assay for binding affinity to BRD4-BD2", "conditions": "binding to BRD4-BD2, Table 5", "description": "Compounds were tested using a bromoKdELECT assay. T7 phage strains displaying bromodomains were grown in parallel in 24-well blocks in an E. coli host derived from the BL21 strain. E. coli were grown to log-phase and infected with T7 phage from a frozen stock (multiplicity of infection=0.4) and incubated with shaking at 32° C. until lysis (90-150 minutes). The lysates were centrifuged (5,000×g) and filtered ([…]) to remove cell debris. Streptavidin-coated magnetic beads were treated with biotinylated small molecule or acetylated peptide ligands for 30 minutes at room temperature to generate affinity resins for bromodomain assays. The liganded beads were blocked with excess biotin and washed with blocking buffer (SeaBlock (Pierce), 1% BSA, 0.05% Tween 20, 1 mM DTT) to remove unbound ligand and to reduce nonspecific phage binding. Binding reactions were assembled by combining bromodomains, liganded affinity beads, and test compounds in 1× binding buffer (17% SeaBlock, 0.33×PBS, 0.04% Tween 20, 0.02% BSA, 0.004% Sodium azide, 7.4 mM DTT). Test compounds were prepared as 1000× stocks in 100% DMSO. Kds were determined using an 11-point 3-fold compound dilution series with one DMSO control point. All compounds for Kd measurements are distributed by acoustic transfer (non-contact dispensing) in 100% DMSO. The compounds were then diluted directly into the assays such that the final concentration of DMSO was 0.09%. All reactions performed in polypropylene 384-well plates. Each was a final volume of 0.02 ml. The assay plates were incubated at room temperature with shaking for 1 hour and the affinity beads were washed with wash buffer (1×PBS, 0.05% Tween 20). The beads were then resuspended in elution buffer (1×PBS, 0.05% Tween […] non-biotinylated affinity ligand) and incubated at room temperature with shaking for 30 minutes. The bromodomain concentration in the eluates was measured by qPCR."}, "[2]": {"assay": "Cellular growth inhibition assay, T-Rex 293 SC cells with doxycycline (CellTiter-Glo, 72 hours)", "type": "cell-based", "conditions": "T-Rex 293 SC cells with doxycycline (increased progesterone receptor isoform B)", "description": "as §1, §2, §3, §4, §5, §6"}}}
{"smiles": "CCNC(=O)C[C@@H]1N=C(c2ccc(N3CC4(C3)CN(c3ccc(C(=O)N[C@H]5CC[C@H](Oc6ccc(C#N)c(Cl)c6)CC5)nn3)C4)cc2)c2c(sc(C)c2C)-n2c(C)nnc21", "note": "[I-24]", "values": [{"measurement": "GI50", "setting": "[1]", "value": "500 to 1500", "unit": "nM"}, {"measurement": "Kd", "setting": "BRD4-BD2", "value": "50 to 500", "unit": "nM"}, {"measurement": "GI50", "setting": "[2]", "value": "< 500", "unit": "nM"}]}
{"smiles": "CCNC(=O)C[C@@H]1N=C(c2ccc(OCCOCCOC3CCN(c4ccc(C(=O)N[C@H]5CC[C@H](Oc6ccc(C#N)c(Cl)c6)CC5)nn4)CC3)cc2)c2c(sc(C)c2C)-n2c(C)nnc21", "note": "[I-10]", "values": [{"measurement": "GI50", "setting": "[1]", "value": "< 500", "unit": "nM"}, {"measurement": "GI50", "setting": "[2]", "value": "< 500", "unit": "nM"}]}
{"smiles": "CCNC(=O)C[C@@H]1N=C(c2ccc(OCCOC3CCN(c4ccc(C(=O)N[C@H]5CC[C@H](Oc6ccc(C#N)c(Cl)c6)CC5)nn4)CC3)cc2)c2c(sc(C)c2C)-n2c(C)nnc21", "note": "[I-8]", "values": [{"measurement": "GI50", "setting": "[1]", "value": "< 500", "unit": "nM"}, {"measurement": "GI50", "setting": "[2]", "value": "< 500", "unit": "nM"}]}
{"smiles": "CCNC(=O)C[C@@H]1N=C(c2ccc(N3CCC(OC4CCN(c5ccc(C(=O)N[C@H]6CC[C@H](Oc7ccc(C#N)c(Cl)c7)CC6)nn5)CC4)CC3)cc2)c2c(sc(C)c2C)-n2c(C)nnc21", "note": "[I-44]", "values": [{"measurement": "Kd", "setting": "BRD4-BD2", "value": "50 to 500", "unit": "nM"}]}
{"smiles": "CCNC(=O)C[C@@H]1N=C(c2ccc(CC3CCN(c4ccc(C(=O)N[C@H]5CC[C@H](Oc6ccc(C#N)c(Cl)c6)CC5)nn4)CC3)cc2)c2c(sc(C)c2C)-n2c(C)nnc21", "note": "[I-20]", "values": [{"measurement": "GI50", "setting": "[1]", "value": "500 to 1500", "unit": "nM"}, {"measurement": "Kd", "setting": "BRD4-BD2", "value": "50 to 500", "unit": "nM"}, {"measurement": "GI50", "setting": "[2]", "value": "< 500", "unit": "nM"}]}
{"smiles": "CCNC(=O)C[C@@H]1N=C(c2ccc(CCCOC3CCN(c4ccc(C(=O)N[C@H]5CC[C@H](Oc6ccc(C#N)c(Cl)c6)CC5)nn4)CC3)cc2)c2c(sc(C)c2C)-n2c(C)nnc21", "note": "[I-17]", "values": [{"measurement": "Kd", "setting": "BRD4-BD2", "value": "< 50", "unit": "nM"}]}
{"smiles": "Cc1sc2c(c1C)C(c1ccc(Cl)cc1)=N[C@@H](CC(=O)NCCOC1CCN(c3ccc(C(=O)N[C@H]4CC[C@H](Oc5ccc(C#N)c(Cl)c5)CC4)nn3)CC1)c1nnc(C)n1-2", "note": "[I-1, N-[4-(3-chloro-4-cyano-phenoxy)cyclohexyl]-6-[4-[2-[[2-[(9S)-7-(4-chlorophenyl)-4,5,13-trimethyl-3-thia-1,8,11,12-tetrazatricyclo[8.3.0.0^2,6]trideca-2(6),4,7,10,12-pentaen-9-yl]acetyl]amino]ethoxy]-1-piperidyl]pyridazine-3-carboxamide]", "values": [{"measurement": "GI50", "setting": "[1]", "value": "< 500", "unit": "nM"}, {"measurement": "GI50", "setting": "[2]", "value": "< 500", "unit": "nM"}]}
{"smiles": "Cc1sc2c(c1C)C(c1ccc(Cl)cc1)=N[C@@H](CC(=O)NCCOCCOCCOC1CCN(c3ccc(C(=O)N[C@H]4CC[C@H](Oc5ccc(C#N)c(Cl)c5)CC4)nn3)CC1)c1nnc(C)n1-2", "note": "[I-2, N-[4-(3-chloro-4-cyano-phenoxy)cyclohexyl]-6-[4-[2-[2-[2-[[2-[(9S)-7-(4-chlorophenyl)-4,5,13-trimethyl-3-thia-1,8,11,12-tetrazatricyclo[8.3.0.0^2,6]trideca-2(6),4,7,10,12-pentaen-9-yl]acetyl]amino]ethoxy]ethoxy]ethoxy]-1-piperidyl]pyridazine-3-carboxamide]", "values": [{"measurement": "GI50", "setting": "[1]", "value": "> 3000", "unit": "nM"}, {"measurement": "GI50", "setting": "[2]", "value": "< 500", "unit": "nM"}]}
